Reference: patent US20040052750A1, “Compositions for prevention and alleviation of skin wrinkles” (priority 2000, published 2004)
Marks after values point to notes of the source that are not given here.

Tests used:
[1] = system: fibroblasts derived from a human; test: Promoting collagen production in fibroblasts (3H-proline incorporation into collagenase-sensitive protein); type: cell-based; details: control = 100%
Protocol: The experimental protocol in detail is as follows.
Human-derived fibroblasts were transferred to a 24 well plate and cultured in a medium containing 10% fetal bovine serum (FBS) for 24 hours, followed by washing twice with phosphate buffered saline. […] After the incubation was terminated, cells from each group were harvested and two fractions of each culture were prepared. One fraction from each culture was treated with collagenase. To all fractions was added trichloroacetic acid to precipitate proteins. The amount of radioactivity incorporated into collagenase-sensitive protein was measured and compared with that of the other fraction which was not treated with collagenase. The difference in radioactivity was attributed to the promoting effect of the compound.

[2] = system: hairless mice; test: Alleviating photo-induced wrinkles in hairless mice; type: in vivo; details: twice a day for 6 weeks, 10 per group
Protocol: Mice were placed into 21 experimental groups and 3 control groups, with 10 rats per group. […] The experimental protocol is as follows. Hairless mice were radiated using a simulated sunlight at a dose of 2 MED (double Minimal Erythema Dose) 3 days a week for 10 weeks, thereby generating wrinkles. Then, respective active ingredients or the solvent only were applied at a volume of 100 μl each, twice a day for 6 weeks. Degrees of wrinkle reduction were determined. The determination was performed by visually observing the compound-applied region with naked eyes, and the region was photographed. The degrees of alleviation of wrinkles in the compound-treatment groups (experimental groups) were compared with those of the control group and were determined as one of 4 stages, that is, none (Score 0), slight (Score 1), moderate (Score 2) and high (Score 3), and the corresponding mice were counted.

[3] = system: rat skin; test: Promotion of collagen production in rat skin (hydroxyproline in implanted PVA sponge); type: in vivo, SD rats; details: 200 μl every day for 10 days, control = 100%
Protocol: In brief, 5-week male SD rats were grouped with 5 rats per group. The rats were each incised 1 cm in the center of their abdomens and PVA sponges (Unipoint ind.) were inserted therein. After suturing, as for experimental groups, respective active ingredients to be examined were applied to the PVA sponge-embeded regions i n a volume o f 200 μl every day for 10 days. Upon autopsy, the PVA sponge was removed to quantify hydroxyproline. The PVA sponge was added with 4 ml of 6 N HCl, hydrolized at 130° C. for 3 hours and was subjected to complete drying. 50 μl of methanol was added and the solution was incubated at 110° C. until HCl was removed. 1.2 ml of 50% isopropanol was added to dissolve the remaining precipitate. 200 μl of chloramine-T (sodium p-toluensulfochloramide trihydrate) solution was added while stirring, and let stand for 10 min. After adding 1.2 ml of Ehrlich reagent and mixing, the solution was incubated at 50° C. for 90 min. The resulting solution was cooled to room temperature and absorbance at 558 nm was measured. Hydroxyproline standard solutions were prepared by dissolving 1 mg hydroxyproline in 1 ml HCl and diluting it to concentrations of 0, 0.2, 0.4, 0.8, 1 mg each relative to 25 μl of 6 N HCl. The standard solutions were hydrolyzed at 130° C. for 3 hours. The quantified value of hydroxyproline, relative to hydroxyproline value (100%) of the control group which was applied with solvent only, are shown in Table 2.

[4] = system: hairless mice; test: Inhibiting the generation of wrinkles in hairless mice (simulated sunlight); type: in vivo; details: 10 per group
Protocol: 6-week hairless mice were placed into 21 experimental groups and 3 control groups, with 10 rats per group. […] The experimental protocol in detail is as follows. Hairless mice were radiated using simulated sunlight at a dose of 2 MED (double Minimal Erythema Dose) 3 days a week for […], thereby generating wrinkles. Respective active ingredients or the solvent only were applied twice every day (specifically, on radiation days, the application was performed at 30 min before and after the radiation), at a volume of 100 μl each for 10 weeks from the first radiation day. Degrees of inhibition of generated wrinkles were determined. The determination was performed by visual observation with naked eyes and photography.

Row | SMILES | Effect of promoting collagen production in fibroblasts (rate of collagen production) ([1]; 10^-5 M) | Effect of promoting collagen production in fibroblasts (rate of collagen production) ([1]; 10^-6 M) | Effect of promoting collagen production in fibroblasts (rate of collagen production) ([1]; 10^-7 M) | Effect of promoting collagen production in fibroblasts (rate of collagen production) ([1]; 10^-8 M) | Reduction of wrinkles, Score 0 (none) ([2]; 10^-3 M) | Reduction of wrinkles, Score 1 (slight) ([2]; 10^-3 M) | Reduction of wrinkles, Score 2 (moderate) ([2]; 10^-3 M) | Reduction of wrinkles, Score 3 (high) ([2]; 10^-3 M) | Reduction of wrinkles, Score 0 (none) ([2]; 10^-5 M) | Reduction of wrinkles, Score 1 (slight) ([2]; 10^-5 M) | Reduction of wrinkles, Score 2 (moderate) ([2]; 10^-5 M) | Reduction of wrinkles, Score 3 (high) ([2]; 10^-5 M) | Reduction of wrinkles, Score 0 (none) ([2]; 10^-8 M) | Reduction of wrinkles, Score 1 (slight) ([2]; 10^-8 M) | Reduction of wrinkles, Score 2 (moderate) ([2]; 10^-8 M) | Reduction of wrinkles, Score 3 (high) ([2]; 10^-8 M) | Inhibition of wrinkles, Score 0 (none) ([4]; 10^-3 M) | Inhibition of wrinkles, Score 1 (slight) ([4]; 10^-3 M) | Inhibition of wrinkles, Score 2 (moderate) ([4]; 10^-3 M) | Inhibition of wrinkles, Score 3 (high) ([4]; 10^-3 M) | other results
1 | CCOC(=O)C1=C(COCCN)NC(C)=C(C(=O)OC)C1c1ccccc1Cl (stereo not shown) [Amoldipine] | 355.26% | 330.42% | 280.07% | 182.42% | 0 number of mice | 1 number of mice | 3 number of mice | 6 number of mice | 0 number of mice | 2 number of mice | 2 number of mice | 6 number of mice | 0 number of mice | 1 number of mice | 1 number of mice | 8 number of mice | 0 number of mice | 0 number of mice | 2 number of mice | 8 number of mice | Effect of promoting collagen production in animal skin (hydroxyproline value vs control) ([3]; 10^-5 M): 181.12%; Effect of promoting collagen production in animal skin (hydroxyproline value vs control) ([3]; 10^-6 M): 163.84%; Effect of promoting collagen production in animal skin (hydroxyproline value vs control) ([3]; 10^-7 M): 149.65%; Effect of promoting collagen production in animal skin (hydroxyproline value vs control) ([3]; 10^-8 M): 132.50%; Inhibition of wrinkles, Score 0 (none) ([4]; 10^-5 M): 0 number of mice; Inhibition of wrinkles, Score 1 (slight) ([4]; 10^-5 M): 1 number of mice; Inhibition of wrinkles, Score 2 (moderate) ([4]; 10^-5 M): 3 number of mice; Inhibition of wrinkles, Score 3 (high) ([4]; 10^-5 M): 6 number of mice; Inhibition of wrinkles, Score 0 (none) ([4]; 10^-8 M): 0 number of mice; Inhibition of wrinkles, Score 1 (slight) ([4]; 10^-8 M): 1 number of mice; Inhibition of wrinkles, Score 2 (moderate) ([4]; 10^-8 M): 1 number of mice; Inhibition of wrinkles, Score 3 (high) ([4]; 10^-8 M): 8 number of mice
2 | COc1ccc([C@@H]2Sc3ccccc3N(CCN(C)C)C(=O)[C@@H]2OC(C)=O)cc1 [Diltiazem] | 362.12% | 321.23% | 276.25% | 199.15% | 0 number of mice | 0 number of mice | 2 number of mice | 8 number of mice | 0 number of mice | 1 number of mice | 2 number of mice | 7 number of mice | 0 number of mice | 1 number of mice | 2 number of mice | 7 number of mice | 0 number of mice | 1 number of mice | 2 number of mice | 7 number of mice | Effect of promoting collagen production in animal skin (hydroxyproline value vs control) ([3]; 10^-5 M): 175.23%; Effect of promoting collagen production in animal skin (hydroxyproline value vs control) ([3]; 10^-6 M): 157.45%; Effect of promoting collagen production in animal skin (hydroxyproline value vs control) ([3]; 10^-7 M): 136.76%; Effect of promoting collagen production in animal skin (hydroxyproline value vs control) ([3]; 10^-8 M): 122.44%; Inhibition of wrinkles, Score 0 (none) ([4]; 10^-5 M): 0 number of mice; Inhibition of wrinkles, Score 1 (slight) ([4]; 10^-5 M): 2 number of mice; Inhibition of wrinkles, Score 2 (moderate) ([4]; 10^-5 M): 2 number of mice; Inhibition of wrinkles, Score 3 (high) ([4]; 10^-5 M): 6 number of mice; Inhibition of wrinkles, Score 0 (none) ([4]; 10^-8 M): 0 number of mice; Inhibition of wrinkles, Score 1 (slight) ([4]; 10^-8 M): 2 number of mice; Inhibition of wrinkles, Score 2 (moderate) ([4]; 10^-8 M): 2 number of mice; Inhibition of wrinkles, Score 3 (high) ([4]; 10^-8 M): 6 number of mice
3 | COC(=O)C1=C(C)NC(C)=C(C(=O)OC)C1c1ccccc1[N+](=O)[O-] [Nifedipine] | 358.16% | 330.30% | 292.21% | 204.31% | 0 number of mice | 2 number of mice | 2 number of mice | 6 number of mice | 0 number of mice | 2 number of mice | 2 number of mice | 6 number of mice | 0 number of mice | 2 number of mice | 3 number of mice | 5 number of mice | 0 number of mice | 2 number of mice | 3 number of mice | 5 number of mice | Inhibition of wrinkles, Score 0 (none) ([4]; 10^-5 M): 0 number of mice; Inhibition of wrinkles, Score 1 (slight) ([4]; 10^-5 M): 2 number of mice; Inhibition of wrinkles, Score 2 (moderate) ([4]; 10^-5 M): 3 number of mice; Inhibition of wrinkles, Score 3 (high) ([4]; 10^-5 M): 5 number of mice; Inhibition of wrinkles, Score 0 (none) ([4]; 10^-8 M): 0 number of mice; Inhibition of wrinkles, Score 1 (slight) ([4]; 10^-8 M): 2 number of mice; Inhibition of wrinkles, Score 2 (moderate) ([4]; 10^-8 M): 3 number of mice; Inhibition of wrinkles, Score 3 (high) ([4]; 10^-8 M): 5 number of mice
4 | O=C1NC(=O)C(c2ccccc2)(c2ccccc2)N1 [Phenytoin] | 381.54% | 360.65% | 298.35% | 215.28* % | 0 number of mice | 0 number of mice | 3 number of mice | 7 number of mice | 0 number of mice | 1 number of mice | 3 number of mice | 6 number of mice | 0 number of mice | 1 number of mice | 2 number of mice | 7 number of mice | 0 number of mice | 0 number of mice | 3 number of mice | 7 number of mice | Effect of promoting collagen production in animal skin (hydroxyproline value vs control) ([3]; 10^-5 M): 182.47%; Effect of promoting collagen production in animal skin (hydroxyproline value vs control) ([3]; 10^-6 M): 167.41%; Effect of promoting collagen production in animal skin (hydroxyproline value vs control) ([3]; 10^-7 M): 143.51%; Effect of promoting collagen production in animal skin (hydroxyproline value vs control) ([3]; 10^-8 M): 132.58* %; Inhibition of wrinkles, Score 0 (none) ([4]; 10^-5 M): 0 number of mice; Inhibition of wrinkles, Score 1 (slight) ([4]; 10^-5 M): 0 number of mice; Inhibition of wrinkles, Score 2 (moderate) ([4]; 10^-5 M): 3 number of mice; Inhibition of wrinkles, Score 3 (high) ([4]; 10^-5 M): 7 number of mice; Inhibition of wrinkles, Score 0 (none) ([4]; 10^-8 M): 0 number of mice; Inhibition of wrinkles, Score 1 (slight) ([4]; 10^-8 M): 0 number of mice; Inhibition of wrinkles, Score 2 (moderate) ([4]; 10^-8 M): 2 number of mice; Inhibition of wrinkles, Score 3 (high) ([4]; 10^-8 M): 8 number of mice
